Measurements: patent US5990078A, “Means of increasing estrogen receptor levels in neural tissue” (The Trustees of Columbia University in the City of New York, priority 1996, dated 1999)
Entries after “also recorded” stand apart in the source; their conditions may differ. One block for each molecule: values may come before it.

Columns and labels:
estrogen receptor [1] = biological target: T1, estrogen receptor (Rattus norvegicus, UniProt P06211); assay: Scatchard analysis of [3H]-moxestrol binding, P14 hypothalamus; set-up: endogenous in cells
T1 sequence (P06211 1-600): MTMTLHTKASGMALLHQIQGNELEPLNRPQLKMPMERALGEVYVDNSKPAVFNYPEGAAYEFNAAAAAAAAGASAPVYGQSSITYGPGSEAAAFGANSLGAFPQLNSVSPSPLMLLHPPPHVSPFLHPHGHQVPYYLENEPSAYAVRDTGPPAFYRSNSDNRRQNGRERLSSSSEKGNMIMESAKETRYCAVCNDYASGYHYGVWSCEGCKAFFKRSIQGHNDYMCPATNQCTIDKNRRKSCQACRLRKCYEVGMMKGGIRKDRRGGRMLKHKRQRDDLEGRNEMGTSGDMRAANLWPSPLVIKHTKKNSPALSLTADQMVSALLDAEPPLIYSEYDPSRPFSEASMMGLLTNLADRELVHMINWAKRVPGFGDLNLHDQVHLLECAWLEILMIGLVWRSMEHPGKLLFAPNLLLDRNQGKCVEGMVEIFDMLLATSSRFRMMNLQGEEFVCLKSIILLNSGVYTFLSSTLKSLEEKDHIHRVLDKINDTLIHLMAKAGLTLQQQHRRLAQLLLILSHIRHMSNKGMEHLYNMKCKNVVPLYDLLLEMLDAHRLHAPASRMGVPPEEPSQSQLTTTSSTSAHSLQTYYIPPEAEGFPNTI
Description: (§1) Nuclear receptor binding sites were identified using previously published protocols (Sohrabji et al., 1994a,b) and were standardized for this experiment using both MCF-7 cells and hypothalamic tissue. Cortical and basal forebrain cultures were maintained for 8 days in vitro. At the end of this period, cultures were incubated for 2 h at 34° C. with […] [^3 H]-moxestol (R2858; specific activity 80 Ci/mmol) in feed (phenol red free RPMI+10% gelded horse serum). The gelded horse serum had undetectable levels of estrogens, androgens, and progesterone (see tissue culture protocol), so that there were no endogenous steroids to compete with the nuclear binding of moxestrol. Control cultures were exposed to [^3 H]-moxestrol in the presence of an excess (2 mM) of unlabeled diethyl stilbestrol (DES), a synthetic estrogen. The radioligand-containing feed was then removed and the cultures washed and harvested for nuclear pellets by sucrose gradient density centrifugation at 4° C. Radioactivity was eluted from nuclear pellets with 95% ethanol (moxestrol is completely soluble in >50% ethanol) and the radioactivity counted in a liquid scintillation counter. […] Specific binding was determined as the difference between total binding and non-specific binding (in the presence of an unlabeled competing ligand) and the data expressed as femtomoles of specifically bound [^3 H] -moxestrol/mg DNA. […]

estrogen receptor [2] = biological target: T2, estrogen receptor (Homo sapiens, UniProt P03372); assay: Scatchard analysis of [3H]-moxestrol binding, MCF7 cells
T2 construct: Scatchard analysis on sectioned hypothalamic tissue and MCF7 cells using this protocol; endogenous in cells; host or cells: MCF-7 cells
T2 sequence (P03372 1-595): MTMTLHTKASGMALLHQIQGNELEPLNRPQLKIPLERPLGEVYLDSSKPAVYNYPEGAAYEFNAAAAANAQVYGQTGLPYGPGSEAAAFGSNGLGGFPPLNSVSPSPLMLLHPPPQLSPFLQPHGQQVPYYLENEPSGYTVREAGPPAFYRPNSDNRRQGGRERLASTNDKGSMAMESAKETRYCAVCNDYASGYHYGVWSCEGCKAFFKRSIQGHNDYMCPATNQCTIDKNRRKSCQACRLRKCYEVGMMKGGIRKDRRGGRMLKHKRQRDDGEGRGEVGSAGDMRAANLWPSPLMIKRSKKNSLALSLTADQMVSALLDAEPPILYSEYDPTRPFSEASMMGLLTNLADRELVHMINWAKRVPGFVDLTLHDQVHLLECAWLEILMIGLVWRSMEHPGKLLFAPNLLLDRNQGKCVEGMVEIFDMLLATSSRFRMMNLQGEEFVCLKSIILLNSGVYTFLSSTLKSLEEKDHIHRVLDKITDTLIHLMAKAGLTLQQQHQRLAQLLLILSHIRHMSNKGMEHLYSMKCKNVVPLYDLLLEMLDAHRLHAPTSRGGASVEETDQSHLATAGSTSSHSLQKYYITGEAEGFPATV
Description: as §1

estrogen receptor [3] = assay: Tyrosine phosphorylation of the estrogen receptor, cortical explants; assay type: cell-based
Description: Estrogen and the neurotrophins have important roles in the developing and adult central nervous system (CNS). […] The hypothesis that estrogen/neurotrophin receptor co-expression leads to reciprocal regulation at the level of signal transduction, through cross-coupling of converging estrogen and neurotrophin signaling pathways whose end-points in the nucleus may be the very same genes was tested. Postnatal day 2 cerebral cortex was maintained as organotypic explants in roller tube culture for 7 days.

estrogen receptor mRNA = assay: In situ hybridization for estrogen receptor mRNA in PC12 cells; assay type: cell-based, rat; details: NGF-treated (14 days, >2 weeks)
From the text: Estrogen receptor mRNA was identified using a previously described unique 48-base oligonucleotide sequence, identical to a region within the ligand-binding domain of the rat uterine estrogen receptor [51] and with less than 25% homology with the other members of the steroid receptor superfamily of DNA binding proteins. The probes were 3' end-labeled with digoxigenin-deoxyuridine-triphosphate using terminal deoxynucleotidyl transferase (BRL).
In situ hybridization histochemistry for the estrogen receptor was performed according to the procedure described in Miranda and Toran-Allerand [71]. Briefly, paraformaldehyde-fixed cultures were hybridized with digoxigenin-labeled oligonucleotide for 16-18 hours, washed extensively and later incubated with antidigoxigenin antibody conjugated to alkaline phosphatase (Boehringer Mannheim). RNA-oligonucleotide hybrids were visualized with a blue color reaction (nitroblue tetrazolium salt/5-bromo-4-chloro-3-indolyl-phosphate) catalyzed by antibody-conjugated alkaline-phosphatase. Color reaction was terminated for all groups when color appeared fully developed in one condition. Coverslips were dehydrated briefly, cleared in Histoclear (National Diagnostics) and coverslipped in Permount. […]

estrogen receptor [4] = biological target: T1, estrogen receptor; set-up: endogenous in cells; details: NGF-sensitive PC12 cells (Sohrabji et al., 1994a); cited from earlier work
p75^NGFR mRNA = assay: Northern blot analysis of p75NGFR mRNA in PC12 cells; assay type: cell-based, rat; details: PC12 cells, NGF treatment
Description: PC12 cells were cultured on collagen-coated coverslips or tissue culture dishes in phenol red-free RPMI 1640 (Gibco BRL) nutrient medium supplemented with 10% (heat-inactivated) gelded (steroid-deficient) horse serum (JRH Biological), according to a modification of standard procedures. In these experiments, fetal calf serum, which contains physiologic levels of estrogen, (32 pg/ml) was not used.
Total RNA, prepared by a modification of the Chomczynski and Sacchi method, was size-fractionated (10-20 μg/lane) on a 1.2% agarose-18% formaldehyde gel and capillary-transferred to nylon membrane (Hybond-N; Amersham). Filters were prehybridized (4-18 h) and hybridized (36-40 h) at 42° C. in 50% Formamide, 3× SSC, 0.1M Tris, 5× Denhardt's and 10% Dextran Sulfate. Probes were labeled with [α-^32 P]-dCTP by the random priming procedure (Random Priming kit, Boehringer Mannheim). trkA mRNA was identified by hybridization with pDM97, a 450 bp trkA-specific probe corresponding to the extracellular and transmembrane domains of the trkA gene [67; gift of L. F. Parada, NCI-FCRDC]. p75^NGFR was probed by hybridization with p5b, a 2 Kb probe corresponding to the extracellular domain of the p75^NGFR gene. Blots were washed first in 0.2×SSC and 0.5% SDS briefly at room temperature and then for 2 h at 60° C., with frequent changes of wash buffer. Filters were then exposed to film (Kodak X-Omat) between intensifying screens and stored at -70° C. for 1-4 days before developing.
Using a standard densitometry package (Jandel Scientific), optical density measurements were obtained from X-ray film. trkA and p75^NGFR transcript densities were normalized to an internal control to account for variation in the amount of RNA loaded.
Total RNA was analyzed by Northern blot analyses, using ^32 P-labeled cDNA probes for trkA and p75^NGFR.

estrogen receptor [5] = biological target: T1, estrogen receptor; assay: Nuclear exchange assay: specific nuclear estrogen binding in PC12 cells; assay type: cell-based; set-up: endogenous in cells; details: for Nuclear estrogen binding after 4 days of NGF treatment: 4 days NGF
Description: In these experiments, fetal calf serum, which contains physiologic levels of estrogen, (32 pg/ml) was not used.
Estrogen binding was estimated by a modification of the nuclear exchange assay. […] Groups receiving estrogen were deprived of the steroid 24 h prior to the assay. […] Tubes were then centrifuged briefly (5 mins, 14000 g) to recover a pellet and washed (3×) in the same buffer, excluding Triton X. Since the estrogen receptor is a nuclear receptor, in some experiments a sucrose gradient protocol was employed to ensure a clean nuclear pellet. […] This mixture was then carefully layered over a buffer containing 1.8 M sucrose and centrifuged for 90 mins, at 15,000 g at 4° C., and the nuclear pellet recovered from the bottom of the tube. […] Specific binding was determined as the difference between total binding and non-specific binding (in the presence of an unlabeled competing ligand). […] Group differences were evaluated using one way analysis of variance with Student-Newman-Keuls test of planned post-hoc comparisons. Differences were considered significant at the 0.05 level.
A modification of the nuclear exchange assay was used to determine the presence of estrogen binding sites in nuclear pellets of PC12 cells.

PC12-E2 cells = assay: Morphological study of neurite growth in PC12-E2 cells; assay type: cell-based
From the text: It has been previously reported that wild-type, differentiated PC12 pheochromocytoma cells express very low levels of estrogen receptors. Here it is reported that a PC12 cell variant, PC12-E2 (Wu, Bradshaw, J. Cell Physiol. 164:1995), is estrogen responsive and expresses high estrogen receptor level (≈50% of the levels observed in estrogen receptor over-expressing MCF-7 cells). Moreover, although tyrosine phosphorylation of the estrogen receptor appeared to be expressed constitutively, these cells responded to added estrogen. PC12-E2 responsiveness to estrogen was determined morphologically and by measuring estradiol-induced ERK activation. […] Preliminary co-precipitation experiments show an association between src and estrogen receptor, src with MEK (MAP Kinase/ERK-activating Kinase), and MEK with B-raf, MEK, which phosphorylates the ERKs on tyrosine residues, is known to exist as a complex consisting of at least hsp90 and B-raf.

[6] = read-out: Dissociation constant (Kd)

Maximal binding (Bmas) (estrogen receptor [1]): 310 fmol/mg DNA
Kd (estrogen receptor [1]; [6]): 0.86 nM
Maximal binding (Bmas) (estrogen receptor [2]): 1800-2500 fmol/mg DNA
Kd (estrogen receptor [2]; [6]): 0.7 to 0.78 nM
Molecule: C#C[C@]1(O)CC[C@H]2[C@@H]3CCc4cc(O)ccc4[C@H]3[C@@H](OC)C[C@@]21C [[^3 H]-moxestrol, 11β-methoxy-[^3 H]-moxestrol]

Tyrosine phosphorylation of the estrogen receptor (estrogen receptor [3]): not
Molecule: NT-3: neurotrophin-3

Tyrosine phosphorylation of the estrogen receptor (estrogen receptor [3]): induced tyrosine phosphorylation
Increase in specific nuclear estrogen binding vs naive (untreated) cells (estrogen receptor [5]; NGF for 3 weeks (21 days)): sixfold
Nuclear estrogen binding after 1 day of NGF exposure (estrogen receptor [5]; time course, 1 day NGF): No increase was observed
Nuclear estrogen binding after 4 days of NGF treatment (estrogen receptor [5]; time course, listed as nerve growth factor): double
Molecule: NGF: nerve growth factor, member of the neurotrophin family of growth factors
Hybridization to estrogen receptor probe (estrogen receptor mRNA): strongly hybridize
Increase in estrogen binding sites (estrogen receptor [4]): sixfold
p75NGFR mRNA vs untreated controls (p75^NGFR mRNA): increase
Nuclear estrogen binding after 4 days of NGF treatment (estrogen receptor [5]; time course): noticeable elevation; also recorded: increase in estrogen binding is present as early as 4 days
Neurite outgrowth (PC12-E2 cells): extensive and rapid
Time to induction of neurite outgrowth (PC12-E2 cells): ≤ 24 h

Tyrosine phosphorylation of the estrogen receptor (estrogen receptor [3]): induced tyrosine phosphorylation
B1: NT-4/5: neurotrophin-4/5 (protein, UniProt P34130 81-210, looked up)
Neurotrophin-4: GVSETAPASRRGELAVCDAVSGWVTDRRTAVDLRGREVEVLGEVPAAGGSPLRQYFFETRCKADNAEEGGPGAGGGGCRGVDRRHWVSECKAKQSYVRALTADAQGRVGWRWIRIDTACVCTLLSRTGRA

Tyrosine phosphorylation of the estrogen receptor (estrogen receptor [3]): induced tyrosine phosphorylation
B2: BDNF: brain-derived neurotrophic factor, a neurotrophin (protein, UniProt P23560 19-247, looked up)
Neurotrophic factor BDNF …: APMKEANIRGQGGLAYPGVRTHGTLESVNGPKAGSRGLTSLADTFEHVIEELLDEDQKVRPNEENNKDADLYTSRVMLSSQVPLEPPLLFLLEEYKNYLDAANMSMRVRRHSDPARRGELSVCDSISEWVTAADKKTAVDMSGGTVTVLEKVPVSKGQLKQYFYETKCNPMGYTKEGCRGIDKRHWNSQCRTTQSYVRALTMDSKKRIGWRFIRIDTSCVCTLTIKRGR
